Experimental data published in ChEMBL document CHEMBL5223082, “Alkyl-Aryl-Vancomycins: Multimodal Glycopeptides with Weak Dependence on the Bacterial Metabolic State” (J Med Chem, 2021).
Calls of active or inactive are those of the source. The rule behind the calls is not given here.

What was measured:
[1] = system: Staphylococcus aureus; assay: Bactericidal activity against methicillin-resistant Staphylococcus aureus ATCC 33591 assessed as log reduction in bacterial colonies at 2XMIC incubated for 24 hrs in broth solution followed by culturing for 24 hrs on agar plate by spot plating method; assay type: functional; details: time 48 hrs
[2] = system: Enterococcus; assay: Bactericidal activity against Vancomycin-resistant Enterococci assessed as log reduction in bacterial colonies at MIC incubated for 24 hrs in broth solution followed by culturing for 24 hrs on agar plate by spot plating method; assay type: functional; details: time 48 hrs
[3] = system: Enterococcus; assay: Potency index, ratio of Vancomycin MIC to test compound MIC for antibacterial activity against Vancomycin-resistant Enterococci ATCC 51575; assay type: functional
[4] = Induction of hemolysis in human erythrocytes at 250 uM incubated for 1 hr by microtiter plater reader analysis; assay type: toxicity, cell-based, Erythrocyte; details: read-out: Activity
[5] = system: Cell membrane; assay: Induction of cytoplasmic membrane depolarization in Bacillus subtilis assessed as increase in fluorescence intensity at 10 uM measured for 35 to 40 mins by DiSC3(5) dye based fluorescence analysis; assay type: subcellular; details: time 35-40 min
[6] = system: Staphylococcus aureus; assay: Bactericidal activity against methicillin-resistant Staphylococcus aureus ATCC 33591 assessed as log reduction in bacterial colonies incubated for 4 hrs in broth solution followed by culturing for 24 hrs on agar plate by spot plating method; assay type: functional; details: time 28 hrs
[7] = system: Staphylococcus aureus; assay: Potency index, ratio of Vancomycin MIC to test compound MIC for antibacterial activity against Vancomycin-resistant Staphylococcus aureus 4; assay type: functional
[8] = system: Bacillus subtilis; assay: Inhibition of cell wall biosynthesis in Bacillus subtilis 168 assessed as bubble-like formation on bacterial cell surface at PEC incubated for 15 mins by light microscopic analysis; assay type: functional, organism-based
[9] = system: Staphylococcus aureus; assay: Antibacterial activity against Vancomycin-resistant Staphylococcus aureus 4 assessed as inhibition of bacterial growth incubated for 18 to 24 hrs by CLSI microbroth dilution method; assay type: functional; details: time 18-24 hrs
[10] = target: T1, Septum site-determining protein MinD (Bacillus subtilis (strain 168)) (UniProt Q01464); assay: Delocalization of GFP tagged-MinD in Bacillus subtilis 168 at MIC incubated for 15 mins by fluorescence microscopy
T1 sequence (whole entry): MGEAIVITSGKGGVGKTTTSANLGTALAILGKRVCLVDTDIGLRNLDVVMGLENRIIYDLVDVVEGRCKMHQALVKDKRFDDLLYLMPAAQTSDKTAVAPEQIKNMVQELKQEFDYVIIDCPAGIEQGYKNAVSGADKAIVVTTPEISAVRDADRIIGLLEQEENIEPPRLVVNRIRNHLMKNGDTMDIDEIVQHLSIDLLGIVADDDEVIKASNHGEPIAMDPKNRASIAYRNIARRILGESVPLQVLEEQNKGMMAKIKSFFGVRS

[11] = system: Staphylococcus aureus; assay: Bactericidal activity against methicillin-resistant Staphylococcus aureus ATCC 33591 incubated for 24 hrs in broth solution followed by culturing for 24 hrs on agar plate by spot plating method; assay type: functional; details: time 48 hrs
[12] = system: HEK293; assay: Cytotoxicity against human HEK293 cells at 30 uM incubated for 24 hrs by calceinAM/PI staining based fluorescence microscopy; assay type: toxicity, cell-based; details: hek293, 24 h
[13] = system: Enterococcus; assay: Bactericidal activity against Vancomycin-resistant Enterococci assessed as log reduction in bacterial colonies at 2XMIC incubated for 24 hrs in broth solution followed by culturing for 24 hrs on agar plate by spot plating method; assay type: functional; details: time 48 hrs
[14] = system: Staphylococcus aureus; assay: Potency index, ratio of Vancomycin MIC to test compound MIC for antibacterial activity against Vancomycin-resistant Staphylococcus aureus 1; assay type: functional
[15] = system: Enterococcus; assay: Bactericidal activity against Vancomycin-resistant Enterococci assessed as reduction in bacterial colonies at MIC to 2XMIC incubated for 6 hrs in broth solution followed by culturing for 24 hrs on agar plate by spot plating method; assay type: functional, organism-based; details: time 30.0 hrs
[16] = system: Staphylococcus aureus; assay: Antibacterial activity against Methicillin-resistant Staphylococcus aureus ATCC 33591 persister cells assessed as log reduction in bacterial colonies at 9 uM incubated for 24 hrs in broth solution followed by incubation on agar plate for 48 hrs by spot plating method; assay type: functional; details: time 72 hrs
[17] = system: Cell membrane; assay: Induction of cytoplasmic membrane permeabilization in Methicillin-resistant Staphylococcus aureus ATCC 33591 assessed as increase in fluorescence intensity at 10 uM measured for 30 to 40 mins by Propidium iodide staining based fluorescence analysis; assay type: subcellular; details: time 30-40 min
[18] = system: Enterococcus; assay: Antibacterial activity against Vancomycin-resistant Enterococci ATCC 51559 assessed as inhibition of bacterial growth incubated for 18 to 24 hrs by CLSI microbroth dilution method; assay type: functional; details: time 18-24 hrs
[19] = system: Enterococcus; assay: Antibacterial activity against Vancomycin-resistant Enterococci NR30903 assessed as inhibition of bacterial growth incubated for 18 to 24 hrs by CLSI microbroth dilution method; assay type: functional; details: time 18-24 hrs
[20] = system: Enterococcus; assay: Bactericidal activity against Vancomycin-resistant Enterococci assessed as log reduction in bacterial colonies at 4XMIC incubated for 6 hrs in broth solution followed by culturing for 24 hrs on agar plate by spot plating method; assay type: functional; details: time 30 hrs
[21] = system: Staphylococcus aureus; assay: Antibacterial activity against stationary phase of Methicillin-resistant Staphylococcus aureus ATCC 33591 assessed as log reduction in bacterial colonies at 4.5 uM incubated for 24 hrs in broth solution followed by incubation on agar plate for 48 hrs by spot plating method; assay type: functional; details: time 72 hrs
[22] = system: Staphylococcus aureus; assay: Antibacterial activity against stationary phase of Methicillin-resistant Staphylococcus aureus ATCC 33591 assessed as log reduction in bacterial colonies at 9 uM incubated for 24 hrs in broth solution followed by incubation on agar plate for 48 hrs by spot plating method; assay type: functional; details: time 72 hrs
[23] = Renal toxicity in mouse assessed as plasma creatinine level at 12 mg/kg, ip measured after 48 hrs; assay type: organism-based; details: in vivo
[24] = system: Enterococcus; assay: Antibacterial activity against Vancomycin-resistant Enterococci ATCC 51575 assessed as inhibition of bacterial growth incubated for 18 to 24 hrs by CLSI microbroth dilution method; assay type: functional; details: time 18-24 hrs
[25] = system: Staphylococcus aureus; assay: Antibacterial activity against Methicillin-resistant Staphylococcus aureus ATCC 33591 assessed as inhibition of bacterial growth incubated for 18 to 24 hrs in presence of 50% human plasma by CLSI microbroth dilution method; assay type: functional; details: time 18-24 hrs
[26] = Renal toxicity in mouse assessed as blood urea nitrogen level at 12 mg/kg, ip measured after 48 hrs; assay type: organism-based; details: in vivo
[27] = system: Staphylococcus aureus; assay: Antibacterial activity against Vancomycin-resistant Staphylococcus aureus 12 assessed as inhibition of bacterial growth incubated for 18 to 24 hrs by CLSI microbroth dilution method; assay type: functional; details: time 18-24 hrs
[28] = system: Staphylococcus aureus; assay: Antibacterial activity against stationary phase of Methicillin-resistant Staphylococcus aureus ATCC 33591 assessed as log reduction in bacterial colonies at 4.5 uM incubated for 12 hrs in broth solution followed by incubation on agar plate for 48 hrs by spot plating method; assay type: functional; details: time 60 hrs
[29] = system: Cell membrane; assay: Induction of cytoplasmic membrane permeabilization in Vancomycin-resistant Enterococci assessed as increase in fluorescence intensity at 10 uM measured for 30 to 40 mins by Propidium iodide staining based fluorescence analysis; assay type: subcellular; details: Enterococcus, time 30-40 min
[30] = system: Staphylococcus aureus; assay: Antibacterial activity against Methicillin-resistant Staphylococcus aureus ATCC 33591 assessed as inhibition of bacterial growth measured after 27 passages; assay type: functional
[31] = system: Staphylococcus aureus; assay: Antibacterial activity against Methicillin-resistant Staphylococcus aureus ATCC 33591 assessed as log reduction in bacterial colonies at 10XMIC incubated for 1 hr in broth solution followed by plating on nutrient agar plate; assay type: functional
[32] = system: Enterococcus; assay: Potency index, ratio of Vancomycin MIC to test compound MIC for antibacterial activity against Vancomycin-resistant Enterococci NR30903; assay type: functional, NR 30903

`CCCCCCCCCCNC(=O)C[N+](C)(C)CCCNC(=O)c1ccc(CN[C@@]2(C)C[C@H](O[C@H]3[C@H](Oc4c5cc6cc4Oc4ccc(cc4Cl)[C@@H](O)[C@@H](NC(=O)[C@@H](CC(C)C)NC)C(=O)N[C@@H](CC(N)=O)C(=O)N[C@H]6C(=O)N[C@H]4C(=O)N[C@H](C(=O)N[C@H](C(=O)O)c6cc(O)cc(O)c6-c6cc4ccc6O)[C@H](O)c4ccc(c(Cl)c4)O5)O[C@H](CO)[C@@H](O)[C@@H]3O)O[C@@H](C)[C@H]2O)cc1` showed an Activity [1] of 6 log10CFU/ml, an Activity [2] of 0.7 log10CFU/ml and a Ratio [3] of 1384. The hemolysis at 1 h, 250 µM [4] was 1%, the Activity [5] was “Active” and the Activity [6] was 3 log10CFU/ml. For the same molecule, the Ratio [7] was 1384, the inhibition [8] was “Active” and the MIC [9] was 0.45 µM. The Activity [10] was 25%, the MBC [11] was 0.9 µM and the Activity [12] was “Non-Toxic”. The Activity [13] was 5 log10CFU/ml, the Ratio [14] was 1384 and the Activity [15] was “inactive”. The Activity [16] was 6 log10CFU/ml, the Activity [17] was “Active” and the MIC [18] was 3.6 µM. For the same molecule, the MIC [19] was 0.45 µM, the Activity [20] was 0.5 log10CFU/ml and the Activity [21] was 2 log10CFU/ml. The Activity [22] was 2.4 log10CFU/ml, the Activity [23] was 0.38 mg/dL and the MIC [24] was 3.6 µM. The MIC [25] was 0.9 µM, the Activity [26] was 20.7 mg/dL and the MIC [27] was 0.9 µM. The Activity [28] was 1.4 log10CFU/ml, the Activity [29] was “Active” and the MIC [30] was 0.9 µM. For the same molecule, the Activity [31] was 0.8 log10CFU/ml and the Ratio [32] was 1384.
